Measured values: patent publication US6699686B1, “Modified nuclear glucocorticoid receptor, fusion protein, and DNA fragments coding for said receptor and said fusion protein” (Association pour le Development de la Recherche en …, priority 1996, dated 2004)
Substitutions are numbered along the chain they refer to.

T1: hGR(I747/T) (Homo sapiens, UniProt P04150, I747T)
T1 construct: The same shift was observed as with the complete GR (I747/T) mutant; expressed in transfected cells
T1 sequence (P04150 1-777 I747T): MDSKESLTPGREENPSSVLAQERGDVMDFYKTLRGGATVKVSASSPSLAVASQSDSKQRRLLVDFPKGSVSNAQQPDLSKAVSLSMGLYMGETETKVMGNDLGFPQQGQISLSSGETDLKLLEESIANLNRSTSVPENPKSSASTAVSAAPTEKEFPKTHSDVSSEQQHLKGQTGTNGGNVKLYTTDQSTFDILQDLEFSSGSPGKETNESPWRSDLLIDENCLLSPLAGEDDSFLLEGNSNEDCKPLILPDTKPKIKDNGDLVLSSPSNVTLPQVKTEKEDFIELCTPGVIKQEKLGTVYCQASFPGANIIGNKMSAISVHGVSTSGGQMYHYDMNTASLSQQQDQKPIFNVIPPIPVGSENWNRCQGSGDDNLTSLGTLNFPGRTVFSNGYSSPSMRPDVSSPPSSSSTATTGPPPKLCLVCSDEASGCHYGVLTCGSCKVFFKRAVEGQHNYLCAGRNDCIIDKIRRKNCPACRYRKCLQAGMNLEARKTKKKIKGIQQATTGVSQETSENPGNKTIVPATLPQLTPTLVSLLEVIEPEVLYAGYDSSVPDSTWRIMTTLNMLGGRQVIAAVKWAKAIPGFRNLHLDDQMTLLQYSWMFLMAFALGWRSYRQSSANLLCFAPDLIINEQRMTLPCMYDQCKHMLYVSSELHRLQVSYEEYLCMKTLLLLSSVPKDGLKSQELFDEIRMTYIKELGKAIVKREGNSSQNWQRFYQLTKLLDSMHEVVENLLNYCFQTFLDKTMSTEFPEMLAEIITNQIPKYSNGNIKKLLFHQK

T2: wild-type hGR (Homo sapiens, UniProt P04150)
T2 construct: expressed in transfected cells
T2 sequence (P04150 1-777): T1 sequence (P04150 1-777 I747T) with T747I

T3: GR(I747/T) glucocorticoid receptor mutant (Homo sapiens, UniProt P04150 SEQ:1-777)
T3 chain: T1 sequence (P04150 1-777 I747T)

B1: synthetic palindromic GRE (pGRE-tk-Luc) (dsDNA)
DNA 1: AGAACACAGTGTTCT
DNA 2: AGAACACTGTGTTCT

Key:
[1] = tested on: Gal4(1-147)-GR(500-777) (Saccharomyces cerevisiae / Homo sapiens); assay: cell_activity; settings: EC50 is for dexamethasone; p(17M)5-βGlob-Luc in HeLa cells; 2e-9 M with tata-Luc
[2] = tested on: Gal4(1-147)-GR(I747/T)(500-777) I747T (Saccharomyces cerevisiae / Homo sapiens); assay: cell_activity; settings: EC50 is for dexamethasone; p(17M)5-βGlob-Luc in HeLa cells; 2e-7 M with tata-Luc
hGR(I747/T) = target: T1, hGR(I747/T); assay: Transcriptional activation of pTAT-tk-Luc luciferase reporter in transiently transfected CV-1 cells; format: cell-based; settings: for transactivation by the I747/T mutant receptor compared with wild-type receptor / Luciferase activity % hGR (I747/T) / EC50: CV-1 cells, pTAT-tk-Luc; for Luciferase activity % hGR (I747/T): 24 h ligand, mean of three independent assays; for EC50: ligand concentration giving 50% of maximum transcriptional response; for % EC50: EC50 hGR(I747/T) relative to EC50 wild type
Method: (§1) The receptors were transiently expressed in GR-free CV-1 cells, conjointly with a luciferase reporter gene under the control of the tyrosine aminotransferase promoter (pTAT-tk-Luc).
(§2) After transfection, the cells were incubated for 24 hours with increasing concentrations of Dex, and they were then subjected to an assay of the β-galactosidase and luciferase activities, as described in “Materials and Methods”. The luciferase activity was normalized with the β-galactosidase activity, and the value obtained in the absence of ligand was subtracted for each point. The results were expressed as a percentage of the maximum luciferase activity obtained for each receptor. Each point is the mean±standard deviation of the mean of four separate determinations carried out in duplicate. […] The [^3H] steroid attached was measured after treatment with dextran-coated charcoal. The results presented are those for a single assay carried out in duplicate and representative of three separate assays.
(§3) Co-transfections were carried out and dose-response curves were constructed as described in FIG. 2. […] The assays of luciferase and β-galactosidase activity were carried out as described in “Materials and Methods”. The mean values of three independent assays are given in this table. nm=not measurable.
(§4) The CV-1 and Cos-7 cells were cultured in Dulbeco's modified Eagle's medium (DMEM) containing 10% (v/v) of fetal calf serum (FCS) (Gibco, Grand Island, N.Y.), in a humidified atmosphere containing 5% CO2. The HeLa cells were cultured under the same conditions. Transient transfections were carried out in 6-well multiplates according to the calcium phosphate procedure already described (42). A reference recombinant plasmid, pCMV-βgal, expressing bacterial β-galactosidase, was transfected conjointly with the receptor expression vector and the corresponding reporter gene so as to correct possible variations in he transfection efficiency. The precipitate was removed by washing after 24 hours, and the cells were kept in DMEX without FCS but containing hormone. After another 24 hours, the cells were rinsed and lysed for 15 minutes with 0.3 ml of lysis buffer [25 mM Tris.phosphate, pH 7.8, 8 mM […], 1% Triton X100, 10% glycerol (48)]. The corresponding luciferase activity as determined on an aliquot fraction (0.1 ml), by evaluation of the luminescence peak (for an integration time of 15 seconds), after injection of 0.1 ml of 1 mM luciferin in an LKB luminometer. The β-galactosidase was determined by the method modified by Bocquel et al. (49), for controlling the efficiency of each transfection.
(§5) The reporter gene pTAT-tk-Luc was provided by D. Gagne and was constructed as follows: an intermediate plasmid pTAT was first generated by insertion of the 966 bp EcoRI-BamHI segment obtained from pKT531 [offered freely by T. Grande (50)] into the corresponding sites of the vector pUC19 (Pharmacia). The fragment containing the sequence coding for the firefly luciferase and the thymidine kinase (tk) minimal promoter obtained from the Herpes simplex virus was isolated in the form of a BamHI fragment from pvit-tk-Luc (51) and inserted, downstream of the TAT promoter, into the corresponding site of pTAT. The reporter plasmid pGRE-tk-Luc was constructed by ligation of the fragment of HindIII-BglII digestion of pGRE-tk-CAT (52), which contains a synthetic GRE (AGAACAcagTGTTCT) upstream of the tk minimal promoter, into the HindIII-BglII sites of pLuc (53). The reporter gene p(17M)5-βGlob-Luc has been previously described (54). The reporter plasmid p(17M)5-tata-Luc was constructed from the plasmid p(17M)5-tata-CAT (55) by digestion with XhoI-BamHI and isolation of the fragment containing (17M5)-tata. This fragment was then inserted into the vector pGL2 (Promega) digested with the same restriction enzymes.

wild-type hGR = target: T2, wild-type hGR; assay: as above; format: cell-based; set-up: Luciferase activity % Wild type: concentration or dose not given beside the values; settings: for Luciferase activity % Wild type: 24 h ligand, mean of three independent assays; for EC50: ligand concentration giving 50% of maximum transcriptional response
Method: as §1, §2, §3, §4, §5

[3] = target: wild-type glucocorticoid receptor (hGR) T747I (reversion to wild type) (Homo sapiens) (UniProt P04150); assay: cell_activity; settings: EC50 is for dexamethasone; luciferase reporter in CV-1 cells
[4] = target: GR(I747/T) glucocorticoid receptor mutant (Homo sapiens) (UniProt P04150); assay: cell_activity; settings: EC50 is for dexamethasone; luciferase reporter in CV-1 cells; cortisol 15% and corticosterone/aldosterone 0% activity
[5] = target: T3, GR(I747/T) glucocorticoid receptor …; assay: cell_activity; EC50 is for dexamethasone; luciferase reporter in CV-1 cells
Method: The $EC50$ values were determined graphically.
The HeLa cells were cultured under the same conditions.

Row | Molecule | EC50 [1] [nM] | EC50 [2] [nM] | transactivation by the I747/T mutant receptor compared with wild-type receptor (hGR(I747/T)) | Luciferase activity % hGR (I747/T) (hGR(I747/T)) [%] | EC50 (hGR(I747/T)) [nM] | % EC50 (hGR(I747/T)) [%] | Luciferase activity % Wild type (wild-type hGR) [%] | EC50 (wild-type hGR) [nM] | EC50 [3] [nM] | EC50 [4] [nM] | EC50 [5] [nM]
1 | (17M)5 Gal4 response element | 1.7 | 150 |  |  |  |  |  |  |  |  | 
2 | CC#C[C@]1(O)CC[C@H]2[C@@H]3C=C(C)C4=CC(=O)C=C[C@]4(C)[C@H]3[C@@H](O)C[C@@]21C [RU28362] |  |  | the same transactivation as with the wild-type receptor | 88 | 7 | 23 | 90 | 0.3 |  |  | 
3 | CC1(C)O[C@@H]2C[C@H]3[C@@H]4CCC5=CC(=O)C=C[C@]5(C)[C@@]4(F)[C@@H](O)C[C@]3(C)[C@]2(C(=O)CO)O1 [TA, triamcinolone acetonide] |  |  |  | 102 | 20 |  | 98 | 0.5 |  |  | 
4 | TAT promoter (pTAT-tk-Luc), two GREs |  |  |  |  |  |  |  |  | 0.4 | 40 | 
5 | CC1(C)O[C@@H]2C[C@H]3[C@@H]4C[C@H](F)C5=CC(=O)C=C[C@]5(C)[C@@]4(F)[C@@H](O)C[C@]3(C)[C@]2(C(=O)CO)O1 [Fluocinolone, fluocinolone acetonide] |  |  | a higher activity | 100 | 3 | 20 | 75 | 0.15 |  |  | 
6 | bimedrazol |  |  | a higher activity | 180 | 2 | 20 | 100 | 0.1 |  |  | 
7 | B1 |  |  |  |  |  |  |  |  |  |  | 20
